No end group written: not given here.

The subject of assay [1] is deep II degree burn (scald wound). Description: Animal Experiment 1: rat scald (deep II degree burn) model. Type of assay: in vivo, SD rats. Particulars: after 14 days of treatment; smeared twice a day on scald wound; other side untreated control. As for the experimental part:
The following will verify the therapeutic function of the medicament prepared in embodiments 1 to 3 on trauma and burns through experiments. The pharmacodynamic effects of polypeptide drugs were evaluated by establishing a rat burn model or a rat trauma model. Experimental Purpose: to study the therapeutic effect of polypeptide drug of the invention on scald. Experimental Animals: SD rats, half male and half female, 200 g±10 g. The Modeling Scheme: the rats' back were depilated with 10% barium sulfide the day before the experiment, and anesthetized by intraperitoneal injection before scalding. The rat models were made with a constant temperature and pressure scald apparatus. After scalding, 5 ml lactate Ringer's solution was intraperitoneally injected immediately to prevent shock. The criteria for successful modeling: disappearance of local epidermis; expansion of blood vessels in epidermis, dermis and subcutaneous tissue; edema of subcutaneous tissue; infiltration of acute and chronic inflammatory cells in dermis and subcutaneous tissue; the above description is a deep II degree burn. Animal Grouping: 8 SD rats in total Ointment Group (Ointment prepared in embodiment 2): 4 rats, half male and half female, scalded on both sides of the body. After scalding, one side was administered, and the other side was used as control. […]

For a further assay, the system named is HaCAT cells. Description: Cell Differentiation Experiment. Type of assay: cell-based, human. The conditions noted are these: 10 μL polypeptide (10 mg/ml), 48 h. Here is the method:
1. Cell Resuscitation: • (1) HaCAT cells (human immortalized epidermal cells, purchased from Wuhan University Cell Preservation Center, GDC106) are taken out of liquid nitrogen, quickly put into a 37° C. water bath, and gently shake the cryopreservation tube to dissolve the cryopreservation solution;
(2) After dissolution, the HaCAT cells were transferred to a centrifuge tube containing 5 ml of culture medium. The cells were collected by centrifugation, centrifuged at 1000 rmp at room temperature for 5 min, and the supernatant was discarded;
(3) The HaCAT cells were suspended in a complete medium containing 10% fetal bovine serum, inoculated into a culture dish, gently blown and mixed, and cultured at 37° C. and 5% CO2 saturated humidity.
When the cell density reaches 80%, the HaCAT cells will be subcultured:
(1) Discard the culture medium and wash it once with PBS;
(2) Add 1-2 ml 0.25% trypsin to digest the cells. Observe under the microscope. Digest for 1-2 min. It can be seen that the cells are separated from each other and become round, that is, the digestion is completed;
(3) Quickly discard the trypsin, add the complete culture medium, blow the cells to make a single cell suspension, pass the passage in a ratio of 1:3, and expand the culture under 37° C. and 5% CO2 saturated humidity. […]

As to MPYSTELIFYIEMDP [polypeptide], the “Photo observation of wound healing” value in assay [1] is “can obviously promote the wound healing”. The “Differentiation of HaCAT cells (morphology on photos)” value with HaCAT cells is given as “some cells are differentiated”.
